Results from patent US6737383B1, “Herbicidal oxadiazolidines” (priority 1999, dated 2004).

Tests used:
rice = assay: Test B flood test rice; assay type: in vivo, Oryza sativa
Summary of the method: (§1)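 Flood test on plants grown to the 2-leaf stage; treated plants kept in greenhouse twelve to sixteen days, then visually rated against controls on a 0 (no effect) to 10 (complete control) scale.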

blackgrass = assay: Test B pre/postemergence blackgrass; assay type: in vivo, Alopecurus myosuroides
Summary of the method: (§2)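 Test chemicals in a non-phytotoxic solvent mixture with surfactant were sprayed preemergence onto planted seeds and postemergence onto plants 2 to 18 cm tall (1- to 4-leaf stage). After twelve to sixteen days in a greenhouse, injury was visually rated against untreated controls from 0 (no effect) to 10 (complete control).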

smallflower flatsedge = assay: Test B flood test smallflower flatsedge; assay type: in vivo, Cyperus difformis
Summary of the method: as §1

morningglory = assay: Test B pre/postemergence morningglory; assay type: in vivo, Ipomoea hederacea
Summary of the method: as §2

surinam grass = assay: Test B pre/postemergence surinam grass; assay type: in vivo, Brachiaria decumbens
Summary of the method: as §2

velvetleaf = assay: Test B pre/postemergence velvetleaf; assay type: in vivo, Abutilon theophrasti
Summary of the method: as §2

soybean = assay: Test B pre/postemergence soybean; assay type: in vivo, Glycine max
Summary of the method: as §2

bedstraw = assay: Test B pre/postemergence bedstraw; assay type: in vivo, Galium aparine; settings: Postemergence
Summary of the method: as §2

crabgrass = assay: Test B pre/postemergence crabgrass; assay type: in vivo, Digitaria sanguinalis
Summary of the method: as §2

purple nutsedge = assay: Test B pre/postemergence purple nutsedge; assay type: in vivo, Cyperus rotundus
Summary of the method: as §2

pigweed = assay: Test B pre/postemergence pigweed; assay type: in vivo, Amaranthus retroflexus
Summary of the method: as §2

corn = assay: Test B pre/postemergence corn; assay type: in vivo, Zea mays
Summary of the method: as §2

wheat = assay: Test B pre/postemergence wheat; assay type: in vivo, Triticum aestivum
Summary of the method: as §2

duck salad = assay: Test B flood test duck salad; assay type: in vivo, Heteranthera limosa
Summary of the method: as §1

giant foxtail = assay: Test B pre/postemergence giant foxtail; assay type: in vivo, Setaria faberii
Summary of the method: as §2

wild oat = assay: Test B pre/postemergence wild oat; assay type: in vivo, Avena fatua
Summary of the method: as §2

[1] = Rate 62 g/ha, flood test species, Pre-emergence, visual evaluation after twelve to sixteen days
[2] = Rate 125 g/ha, under heading Pre-emergence, flood test species, visual evaluation after twelve to sixteen days
[3] = Rate 250 g/ha, Pre-emergence (flood test species), scale 0 to 10, 0 is no effect, 10 is complete control
[4] = Rate 500 g/ha, Pre-emergence section of Table B, 0 to 10 scale (0 no effect, 10 complete control)
[5] = Postemergence, Rate 62 g/ha, scale 0 to 10, 0 is no effect, 10 is complete control
[6] = Postemergence, Rate 125 g/ha, scale of 0 to 10 where 0 is no effect and 10 is complete control
[7] = Postemergence, Rate 250 g/ha, scale of 0 to 10, 0 is no effect, 10 is complete control
[8] = Preemergence, Rate 62 g/ha, scale of 0 to 10 where 0 is no effect and 10 is complete control
[9] = Preemergence, Rate 125 g/ha, scale of 0 to 10 where 0 is no effect and 10 is complete control
[10] = Preemergence, Rate 250 g/ha, scale 0 to 10 (0 no effect, 10 complete control)
[11] = Preemergence, Rate 500 g/ha, scale of 0 to 10 where 0 is no effect and 10 is complete control
[12] = Rate 500 g/ha, Postemergence, scale 0 to 10, 0 is no effect, 10 is complete control

CC(C)N(C(=O)n1oc(=O)n(CC2CCCCO2)c1=O)c1ccc(Cl)cc1 (stereo not drawn) [Compound 660]
Plant response rating, Rice (0 to 10 scale, 0 is no effect, 10 is complete control) (rice; [1]): 0 | Rice plant response rating (0 to 10 scale, 0 is no effect, 10 is complete control) (rice; [2]): 0 | Rice plant response rating (rice; [3]): 0 | Rice plant response rating (rice; [4]): 0 | Plant response rating, Blackgrass (blackgrass; [5]): 0 | Blackgrass plant response rating (blackgrass; [6]): 0 | Blackgrass plant response rating (blackgrass; [7]): 3 | Blackgrass plant response rating (blackgrass; [8]): 0 | Blackgrass plant response rating (blackgrass; [9]): 4 | Plant response rating, Blackgrass (blackgrass; [10]): 6 | Plant response rating, Blackgrass (blackgrass; [11]): 7 | Blackgrass plant response rating (blackgrass; [12]): 6 | Plant response rating, S. Flatsedge (0 to 10 scale, 0 is no effect, 10 is complete control) (smallflower flatsedge; [1]): 0 | S. Flatsedge plant response rating (0 to 10 scale, 0 is no effect, 10 is complete control) (smallflower flatsedge; [2]): 0 | S. Flatsedge plant response rating (smallflower flatsedge; [3]): 0 | S. Flatsedge plant response rating (smallflower flatsedge; [4]): 0 | Plant response rating, Morningglory (morningglory; [5]): 1 | Morningglory plant response rating (morningglory; [6]): 4 | Morningglory plant response rating (morningglory; [7]): 6 | Morningglory plant response rating (morningglory; [8]): 0 | Morningglory plant response rating (morningglory; [9]): 0 | Plant response rating, Morningglory (morningglory; [10]): 0 | Plant response rating, Morningglory (morningglory; [11]): 0 | Morningglory plant response rating (morningglory; [12]): 7 | Plant response rating, B. signalgrass (surinam grass; [5]): 0 | Plant response rating, B. signalgrass (surinam grass; [6]): 0 | B. signalgrass plant response rating (surinam grass; [7]): 0 | B. signalgrass plant response rating (surinam grass; [8]): 0 | B. signalgrass plant response rating (surinam grass; [9]): 1 | Plant response rating, B. signalgrass (surinam grass; [10]): 4 | Plant response rating, B. signalgrass (surinam grass; [11]): 4 | B. signalgrass plant response rating (surinam grass; [12]): 5 | Plant response rating, Velvetleaf (velvetleaf; [5]): 0 | Velvetleaf plant response rating (velvetleaf; [6]): 2 | Velvetleaf plant response rating (velvetleaf; [8]): 0 | Velvetleaf plant response rating (velvetleaf; [9]): 0 | Plant response rating, Velvetleaf (velvetleaf; [10]): 0 | Plant response rating, Velvetleaf (velvetleaf; [11]): 0 | Velvetleaf plant response rating (velvetleaf; [12]): 3 | Plant response rating, Soybean (soybean; [5]): 2 | Soybean plant response rating (soybean; [6]): 3 | Soybean plant response rating (soybean; [8]): 0 | Soybean plant response rating (soybean; [9]): 0 | Plant response rating, Soybean (soybean; [10]): 0 | Plant response rating, Soybean (soybean; [11]): 0 | Soybean plant response rating (soybean; [12]): 6 | Plant response rating, Bedstraw (bedstraw; Rate 62 g/ha, scale 0 to 10, 0 is no effect, 10 is complete control): 0 | Bedstraw plant response rating (bedstraw; Rate 125 g/ha, scale of 0 to 10 where 0 is no effect and 10 is complete control): 0 | Bedstraw plant response rating (bedstraw; Rate 500 g/ha, scale 0 to 10, 0 is no effect, 10 is complete control): 0 | Plant response rating, Crabgrass (crabgrass; [5]): 0 | Crabgrass plant response rating (crabgrass; [6]): 1 | Crabgrass plant response rating (crabgrass; [7]): 5 | Crabgrass plant response rating (crabgrass; [8]): 4 | Crabgrass plant response rating (crabgrass; [9]): 7 | Plant response rating, Crabgrass (crabgrass; [10]): 8 | Plant response rating, Crabgrass (crabgrass; [11]): 9 | Crabgrass plant response rating (crabgrass; [12]): 7 | Plant response rating, Nutsedge (purple nutsedge; [5]): 0 | Nutsedge plant response rating (purple nutsedge; [6]): 0 | Nutsedge plant response rating (purple nutsedge; [8]): 0 | Nutsedge plant response rating (purple nutsedge; [9]): 0 | Plant response rating, Nutsedge (purple nutsedge; [10]): 0 | Plant response rating, Nutsedge (purple nutsedge; [11]): 0 | Nutsedge plant response rating (purple nutsedge; [12]): 0 | Plant response rating, Redroot pigweed (pigweed; [5]): 2 | Redroot pigweed plant response rating (pigweed; [6]): 2 | Redroot pigweed plant response rating (pigweed; [8]): 0 | Redroot pigweed plant response rating (pigweed; [9]): 5 | Plant response rating, Redroot pigweed (pigweed; [10]): 7 | Plant response rating, Redroot pigweed (pigweed; [11]): 10 | Redroot pigweed plant response rating (pigweed; [12]): 6 | Plant response rating, Corn (corn; [5]): 0 | Corn plant response rating (corn; [6]): 0 | Corn plant response rating (corn; [7]): 0 | Corn plant response rating (corn; [8]): 0 | Corn plant response rating (corn; [9]): 0 | Plant response rating, Corn (corn; [10]): 0 | Plant response rating, Corn (corn; [11]): 0 | Corn plant response rating (corn; [12]): 2 | Plant response rating, Wheat (wheat; [5]): 0 | Wheat plant response rating (wheat; [6]): 0 | Wheat plant response rating (wheat; [8]): 0 | Wheat plant response rating (wheat; [9]): 0 | Plant response rating, Wheat (wheat; [10]): 0 | Plant response rating, Wheat (wheat; [11]): 0 | Wheat plant response rating (wheat; [12]): 0 | Plant response rating, Ducksalad (0 to 10 scale, 0 is no effect, 10 is complete control) (duck salad; [1]): 0 | Ducksalad plant response rating (0 to 10 scale, 0 is no effect, 10 is complete control) (duck salad; [2]): 0 | Ducksalad plant response rating (duck salad; [3]): 0 | Ducksalad plant response rating (duck salad; [4]): 0 | Plant response rating, Giant foxtail (giant foxtail; [5]): 3 | Giant foxtail plant response rating (giant foxtail; [6]): 4 | Giant foxtail plant response rating (giant foxtail; [7]): 5 | Giant foxtail plant response rating (giant foxtail; [8]): 8 | Giant foxtail plant response rating (giant foxtail; [9]): 10 | Plant response rating, Giant foxtail (giant foxtail; [10]): 10 | Plant response rating, Giant foxtail (giant foxtail; [11]): 10 | Giant foxtail plant response rating (giant foxtail; [12]): 8 | Plant response rating, Wild oats (wild oat; [5]): 0 | Wild oats plant response rating (wild oat; [6]): 0 | Wild oats plant response rating (wild oat; [8]): 0 | Wild oats plant response rating (wild oat; [9]): 0 | Plant response rating, Wild oats (wild oat; [10]): 2 | Plant response rating, Wild oats (wild oat; [11]): 3 | Wild oats plant response rating (wild oat; [12]): 0
